Biological target: Mu-type opioid receptor (Homo sapiens, UniProt P35372)
Assay: Inhibition of [3H]- diprenorphine binding on Opioid receptor mu 1 expressed in human embryonic kidney (HEK) cells
Type: cell-based

Mu-type opioid receptor, sequence (P35372 whole entry): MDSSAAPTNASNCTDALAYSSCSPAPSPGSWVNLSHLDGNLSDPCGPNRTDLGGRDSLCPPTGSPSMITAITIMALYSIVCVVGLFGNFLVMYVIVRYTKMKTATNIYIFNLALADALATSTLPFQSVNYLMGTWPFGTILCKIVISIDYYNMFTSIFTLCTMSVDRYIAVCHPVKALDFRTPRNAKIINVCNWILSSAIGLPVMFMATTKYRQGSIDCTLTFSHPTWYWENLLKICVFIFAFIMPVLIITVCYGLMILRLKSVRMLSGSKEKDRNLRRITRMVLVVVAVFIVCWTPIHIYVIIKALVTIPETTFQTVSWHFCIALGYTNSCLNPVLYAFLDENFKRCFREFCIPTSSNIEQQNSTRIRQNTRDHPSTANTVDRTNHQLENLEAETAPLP

With `O=Cc1cc2ccc(C(=O)N[C@@H]3CC[C@@]4(O)C5Cc6ccc(O)c7c6[C@@]4(CCN5CC4CC4)[C@H]3O7)cc2cc1C=O` as the compound, how does the Ki read?
The Ki was 0.744 nM.
